Data from BindingDB's records for doi:10.1016/s0028-3908(97)00038-5 (Smithkline Beecham Pharmaceuticals, 1997).

Assays:
[1] = target: 5-hydroxytryptamine receptor 7 (Homo sapiens, UniProt P34969)
[2] = target: 5-hydroxytryptamine receptor 1B (Cricetulus griseus, UniProt P46636)
[3] = target: Tyrosine-protein kinase Fyn (Homo sapiens, UniProt P06241)
[4] = target: 5-hydroxytryptamine receptor 4 (Sus scrofa, UniProt Q29006)
[5] = target: T1, Alpha-1B adrenergic receptor (Mesocricetus auratus, UniProt P18841)
T1 sequence (P18841 whole entry): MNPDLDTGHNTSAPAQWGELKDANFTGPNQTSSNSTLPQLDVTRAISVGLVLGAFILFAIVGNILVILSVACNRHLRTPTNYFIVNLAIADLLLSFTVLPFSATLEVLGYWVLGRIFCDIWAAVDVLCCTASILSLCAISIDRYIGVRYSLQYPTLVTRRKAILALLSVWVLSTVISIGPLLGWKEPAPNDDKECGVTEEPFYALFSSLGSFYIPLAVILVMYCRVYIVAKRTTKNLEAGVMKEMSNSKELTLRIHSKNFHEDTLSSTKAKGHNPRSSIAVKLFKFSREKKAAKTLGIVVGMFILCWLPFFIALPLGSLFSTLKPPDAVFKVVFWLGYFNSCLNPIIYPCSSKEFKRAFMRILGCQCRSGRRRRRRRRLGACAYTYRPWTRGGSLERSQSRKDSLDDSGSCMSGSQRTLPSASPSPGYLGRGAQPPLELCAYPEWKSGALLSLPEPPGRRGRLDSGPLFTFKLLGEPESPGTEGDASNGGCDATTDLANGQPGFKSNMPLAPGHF

D(2) dopamine receptor = D(2) dopamine receptor (Mesocricetus auratus, UniProt A0A1U7QAF5)
D(2) dopamine receptor, sequence (A0A1U7QAF5 whole entry): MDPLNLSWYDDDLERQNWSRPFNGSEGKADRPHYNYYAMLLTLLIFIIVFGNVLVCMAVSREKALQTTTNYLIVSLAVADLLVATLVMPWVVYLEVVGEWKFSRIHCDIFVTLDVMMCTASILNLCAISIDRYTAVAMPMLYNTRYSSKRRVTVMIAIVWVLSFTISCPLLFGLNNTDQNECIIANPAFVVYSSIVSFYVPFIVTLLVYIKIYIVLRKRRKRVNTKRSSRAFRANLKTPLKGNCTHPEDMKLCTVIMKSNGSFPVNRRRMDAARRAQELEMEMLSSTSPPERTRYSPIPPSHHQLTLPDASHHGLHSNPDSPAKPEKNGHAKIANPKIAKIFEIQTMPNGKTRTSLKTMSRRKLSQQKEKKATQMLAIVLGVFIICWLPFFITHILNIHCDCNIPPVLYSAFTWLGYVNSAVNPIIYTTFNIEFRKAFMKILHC

D(3) dopamine receptor = D(3) dopamine receptor (Cricetulus griseus, UniProt A0A3Q0CXS4)
D(3) dopamine receptor, sequence (A0A3Q0CXS4 whole entry): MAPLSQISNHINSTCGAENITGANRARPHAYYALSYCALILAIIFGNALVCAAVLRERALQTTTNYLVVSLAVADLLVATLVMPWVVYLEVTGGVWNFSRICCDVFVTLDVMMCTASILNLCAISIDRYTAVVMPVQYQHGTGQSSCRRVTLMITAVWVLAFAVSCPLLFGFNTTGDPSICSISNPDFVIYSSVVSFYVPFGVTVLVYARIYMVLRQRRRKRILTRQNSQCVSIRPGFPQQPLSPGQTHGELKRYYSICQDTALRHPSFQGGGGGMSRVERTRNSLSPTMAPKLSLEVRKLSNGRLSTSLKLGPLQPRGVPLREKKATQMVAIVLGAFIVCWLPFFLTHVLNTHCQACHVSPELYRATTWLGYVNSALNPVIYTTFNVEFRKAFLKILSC

5-hydroxytryptamine receptor 7, sequence (P34969 whole entry): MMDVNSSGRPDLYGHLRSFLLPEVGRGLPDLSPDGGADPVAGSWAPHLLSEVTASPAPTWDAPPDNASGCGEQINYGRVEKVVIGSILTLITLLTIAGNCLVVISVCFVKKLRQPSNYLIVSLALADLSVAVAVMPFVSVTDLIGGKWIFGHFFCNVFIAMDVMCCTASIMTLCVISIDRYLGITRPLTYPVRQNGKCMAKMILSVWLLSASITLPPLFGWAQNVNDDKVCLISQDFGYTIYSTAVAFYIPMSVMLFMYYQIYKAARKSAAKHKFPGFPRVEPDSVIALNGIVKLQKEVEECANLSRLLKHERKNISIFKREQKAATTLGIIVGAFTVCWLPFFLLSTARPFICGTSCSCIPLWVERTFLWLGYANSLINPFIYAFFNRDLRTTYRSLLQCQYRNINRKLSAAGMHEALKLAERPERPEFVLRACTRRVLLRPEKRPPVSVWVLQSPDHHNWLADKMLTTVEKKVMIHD
5-hydroxytryptamine receptor 1B, sequence (P46636 whole entry): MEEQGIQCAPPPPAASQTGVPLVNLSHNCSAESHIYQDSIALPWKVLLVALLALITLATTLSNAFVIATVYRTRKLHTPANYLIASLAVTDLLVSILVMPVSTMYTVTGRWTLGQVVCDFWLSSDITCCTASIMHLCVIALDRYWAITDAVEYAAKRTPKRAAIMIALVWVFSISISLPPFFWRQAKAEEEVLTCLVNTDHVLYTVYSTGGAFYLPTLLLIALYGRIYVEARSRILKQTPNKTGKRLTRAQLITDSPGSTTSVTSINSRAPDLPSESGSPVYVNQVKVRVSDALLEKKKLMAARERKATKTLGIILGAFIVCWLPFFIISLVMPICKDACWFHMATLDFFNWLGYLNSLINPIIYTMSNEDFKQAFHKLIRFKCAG
5-hydroxytryptamine receptor 4, sequence (Q29006 whole entry): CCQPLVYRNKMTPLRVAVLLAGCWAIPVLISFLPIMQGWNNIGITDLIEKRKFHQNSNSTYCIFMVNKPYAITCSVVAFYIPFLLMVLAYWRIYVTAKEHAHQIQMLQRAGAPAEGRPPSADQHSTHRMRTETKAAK
Tyrosine-protein kinase Fyn, sequence (P06241 whole entry): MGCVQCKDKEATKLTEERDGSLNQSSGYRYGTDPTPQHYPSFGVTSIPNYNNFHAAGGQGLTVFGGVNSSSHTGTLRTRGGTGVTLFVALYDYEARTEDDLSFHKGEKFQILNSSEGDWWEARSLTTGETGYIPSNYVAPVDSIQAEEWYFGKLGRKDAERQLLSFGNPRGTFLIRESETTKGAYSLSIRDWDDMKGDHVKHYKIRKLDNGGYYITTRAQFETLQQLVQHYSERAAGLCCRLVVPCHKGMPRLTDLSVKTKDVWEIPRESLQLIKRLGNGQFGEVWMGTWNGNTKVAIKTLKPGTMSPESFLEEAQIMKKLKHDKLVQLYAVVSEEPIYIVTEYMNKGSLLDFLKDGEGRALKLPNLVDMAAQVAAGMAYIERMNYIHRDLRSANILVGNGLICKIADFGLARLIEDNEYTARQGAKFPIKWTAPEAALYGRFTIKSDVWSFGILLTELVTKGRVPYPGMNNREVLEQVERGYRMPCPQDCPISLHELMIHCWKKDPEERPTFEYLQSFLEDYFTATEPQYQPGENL

- Ki [1]: 794 nM
- Ki [2]: 398 nM
- Ki [3]: 1000 nM
- Ki [4]: 3160 nM
- Ki [5]: > 10000 nM
- Ki (D(2) dopamine receptor): 631 nM
- Ki (D(3) dopamine receptor): 631 nM
Structure (SMILES): Cc1cc2c(cc1Cl)N(C(=O)Nc1ccc(Oc3cccnc3C)nc1)CC2 [CAS_181632-25-7]
